The experiment addresses T1, human factor-Xa (Homo sapiens, UniProt P00742).
T1 construct: purchased Cosmobio Co., Ltd
As to the kind of experiment: Determination of anti-factor Xa activity (S-2222 coloring substrate, absorbance at 405 nm). It counts as biochemical. Particulars: human factor-Xa 0.25 unit/ml, S-2222 0.4 mM, Tris buffer pH 8.4, room temperature, 5 minutes; read-out: Inhibitory Action against Factor Xa Activity (IC50 (nM)). As to the method: Determination of Anti-factor Xa Activity
Anti-factor Xa activity was determined according to methods described by Hara et al. [Thrombo. Haemost., 71, 314 (1994)], which were slightly modified. S-2222, a coloring substrate (0.4 mM, Daiichi Pure Chemicals Co., Ltd.) and the test compounds were mixed in Tris hydrochloride buffered solution (50 mM, pH: 8.4) containing NaCl (0.9%). To this solution, human factor-Xa (0.25 unit/ml, Cosmobio Co., Ltd.) was added and the reaction was started. In the control group, distilled water was added to the Tris-buffered solution instead of the test compound. The reaction mixture (in total: 0.1 ml) was incubated at room temperature for 5 minutes. Optical absorbance of the reaction mixture was continuously determined at 405 nm with a 96-well microplate reader (Model 550, Biorad) and increase in the absorbance for 5 minutes was calculated as an indicator of factor Xa activity. To assess anti-factor Xa activities of the test compounds, concentrations of the test compounds to inhibit the factor Xa activity by 50% (IC50) were calculated.

Usually IC50 stands for the concentration that inhibits the measured activity by half.

SMILES strings stand for the structures. Structures can show the parent of a compound that is named as a salt.

T1 sequence (P00742 235-488 limits assumed): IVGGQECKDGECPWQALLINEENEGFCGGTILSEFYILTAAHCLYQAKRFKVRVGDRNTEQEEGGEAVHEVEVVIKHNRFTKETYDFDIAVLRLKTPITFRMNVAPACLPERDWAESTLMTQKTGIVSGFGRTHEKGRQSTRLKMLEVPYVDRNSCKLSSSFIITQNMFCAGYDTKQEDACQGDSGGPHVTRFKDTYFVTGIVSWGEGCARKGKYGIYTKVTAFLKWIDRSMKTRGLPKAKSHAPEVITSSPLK
T1 sequence (P00742 41-179 partner limits assumed): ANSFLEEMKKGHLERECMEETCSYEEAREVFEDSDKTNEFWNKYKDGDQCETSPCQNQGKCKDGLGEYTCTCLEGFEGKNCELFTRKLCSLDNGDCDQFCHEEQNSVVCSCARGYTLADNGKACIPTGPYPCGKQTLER

Take `N=C(N)c1cccc(/C=C/CN(c2ccc(OC3CCN(C(=N)c4ccccc4)CC3)c(Cl)c2)S(=O)(=O)CC(=O)O)c1` [Example 52, N-[3-(3-Amidinophenyl)-2-(E)-propenyl]-N-[4-(1-iminophenylmethylpiperidin-4-yloxy)-3-chlorophenyl]sulfamoylacetic acid dihydrochloride]: the IC50 came to 7.8 nM. Turning to `CCN1CCC(Oc2ccc(N(C/C=C/c3cccc(C(=N)N)c3)S(=O)(=O)CC(=O)O)cc2Cl)CC1` [Example 4, N-[3-(3-Amidinophenyl)-2-(E)-propenyl]-N-[3-chloro-4-(1-ethylpiperidin-4-yloxy)phenyl]sulfamoylacetic acid dihydrochloride], the IC50 was 10 nM. The same measure for `CCOC(=O)CS(=O)(=O)N(C/C=C/c1cccc(C(=N)N)c1)c1ccc(OC2CCN(C)CC2)c(C(F)(F)F)c1` [Example 45, Ethyl N-[3-(3-amidinophenyl)-2-(E)-propenyl]-N-[4-(1-methylpiperidin-4-yloxy)-3-trifluoromethylphenyl]sulfamoylacetate dihydrochloride]: 7.9 nM; for `N=C(N)c1cccc(/C=C/CN(c2ccc(OC3CCN(Cc4ccccc4)CC3)c(Cl)c2)S(=O)(=O)CC(=O)O)c1` [Example 10, N-[3-(3-Amidinophenyl)-2-(E)-propenyl]-N-[4-(1-benzylpiperidin-4-yloxy)-3-chlorophenyl]sulfamoylacetic acid dihydrochloride]: 15 nM. In the case of `N=C(N)c1cccc(/C=C/CN(c2ccc(OC3CCN(C4=NCCCC4)CC3)c(Cl)c2)S(=O)(=O)CC(=O)O)c1` [Example 56, N-[3-(3-Amidinophenyl)-2-(E)-propenyl]-N-[3-chloro-4-[1-(2,3,4,5-tetrahydropyridin-6-yl)piperidin-4-yloxy]phenyl]sulfamoylacetic acid dihydrochloride], the IC50 worked out at 10 nM. Regarding `N=C(N)c1cccc(/C=C/CN(c2ccc(OC3CCN(CCc4ccccn4)CC3)c(Cl)c2)S(=O)(=O)CC(=O)O)c1` [Example 36, N-[3-(3-Amidinophenyl)-2-(E)-propenyl]-N-[3-chloro-4-[1-[2-(2-pyridyl)ethyl]piperidin-4-yloxy]phenyl]sulfamoylacetic acid trihydrochloride], the IC50 is 13 nM. For the compound `N=C(N)c1cccc(/C=C/CN(c2ccc(OC3CCN(CCc4ccccc4)CC3)c(Cl)c2)S(=O)(=O)CC(=O)O)c1` [Example 12, N-[3-(3-Amidinophenyl)-2-(E)-propenyl]-N-[3-chloro-4-(1-phenethylpiperidin-4-yloxy)phenyl]sulfamoylacetic acid dihydrochloride], the IC50 is 13 nM. In the case of `N=C(N)c1cccc(/C=C/CN(c2ccc(OC3CCN(C4CCCC4)CC3)c(Cl)c2)S(=O)(=O)CC(=O)O)c1` [Example 38, N-[3-(3-Amidinophenyl)-2-(E)-propenyl]-N-[3-chloro-4-(1-cyclopentylpiperidin-4-yloxy)phenyl]sulfamoylacetic acid dihydrochloride], the IC50 stood at 12 nM. `CCN=CN1CCC(Oc2ccc(N(CC=Cc3cccc(C(=N)N)c3)S(=O)(=O)CC(=O)OCC)cc2Cl)CC1` [Example 86, Ethyl N-[3-(3-amidinophenyl)-2-(E)-propenyl]-N-[3-chloro-4-[1-(N-ethylformimidoyl)piperidin-4-yloxy]phenyl]sulfamoylacetate dihydrochloride]: the IC50 was found to be 15 nM.

Take `Cc1cc(N(C/C=C/c2cccc(C(=N)N)c2)S(=O)(=O)CC(=O)O)ccc1OC1CCN(C2=NCCCC2)CC1` [Example 68, N-[3-(3-Amidinophenyl)-2-(E)-propenyl]-N-[3-methyl-4-(2,3,4,5-tetrahydropyridin-6-yl)piperidin-4-yloxy]phenyl]sulfamoylacetic acid dihydrochloride]: the IC50 stood at 15 nM.

For the origin of these results see patent US7030138B2, “Benzamidine derivatives” (Sankyo Company, Limited, priority 2001, dated 2006).
